Data taken from patent US20140356383A1, “ADMINISTRATION OF AN ANTI-GCC ANTIBODY-DRUG CONJUGATE AND A DNA DAMAGING AGENT IN THE TREATMENT OF CANCER” (priority 2013, published 2014).

Legend:
HT 29 GCC #18 cells = assay: Direct cytotoxicity assay (WST), HT 29 GCC #18 cells; format: cell-based, human; conditions: auristatin ADCs
293-GCC#2 tumors = assay: PK/PD study (phospho-histone H3) in 293-GCC#2 tumor bearing mice; format: in vivo
Text: Phospho-histone H3 was detected by antibody (Upstate Biotechnology, now Millipore, Billerica, Mass.) staining of paraffin embedded sections of tumors.

293 GCC#2 tumors = assay: Efficacy study with auristatin conjugates in 293 GCC#2 tumors, q7d×4; format: in vivo, SCID mice; conditions: for T/C: treatment/control
Description: 293 GCC#2 tumor-bearing SCID mice were treated with 5F9 conjugates with vc MMAE, vcMMAF or mcMMAF at three doses in comparison with 209 conjugates of these toxins or with free toxins or vehicle control. Doses were administered iv on a q7d×4 schedule. Tumors were harvested at days 3, 7, 10, 13 and 17. […] Table 18 provides a summary of the results (TGI=tumor growth inhibition, T/C=treatment/control, TGD=tumor growth delay, CR/PR=complete response/partial response; p value=measure to judge statistical significance, NS=not significant).

293-GCC#2 s.c. tumors = assay: Efficacy study with 5F9vcMMAF and 5F9-DMx in 293-GCC#2 s.c. tumors, q14d×5; format: in vivo; conditions: 293-GCC#2 bearing SCID mice, 75 and 150 μg/kg toxin
Description: 5F9-SPDB-DM4, 5F9-SMCC-DM1 and 5F9vcMMAF were tested for efficacy in the 293-GCC#2 tumor model at two doses (75 μg/kg and 150 […] toxin), on a q14d×5 schedule. Specifically, this study included vehicle-treated control, Sc209-DM1 (150 μg/kg DM1 eq), Sc209-DM4 (150 μg/kg DM4 eq), Sc209-vcMMAF (150 μg/kg MMAF eq), 5F9-DM1 (150 μg/kg DM1 eq), 5F9-DM1 (75 μg/kg DM1 eq), 5F9-DM4 (150 μg/kg DM4 eq), 5F9-DM4 (75 μg/kg DM4 eq), 5F9-vcMMAF (150 μg/kg MMAF eq), and 5F9-vcMMAF (75 μg/kg MMAF eq). Taconic female mice bearing 293-GCC#2 cells (10 mice per group) were used.
FIG. 1 depicts tumor growth in 293-GCC#2 bearing SCID mice treated with 5F9vc-MMAF, -DM1, and -DM4 on a q14d schedule. […] Therefore at these doses and schedules, 5F9-SPDB-DM4 had the greatest efficacious differential from its control conjugate.

HT29-GCC#5 s.c. tumors = assay: Pilot efficacy studies in HT29-GCC#5 s.c. tumors; format: in vivo; conditions: 150 μg/kg on a q3d×5 schedule, mice bearing HT29-GCC#5 tumors
Description: Studies were performed to determine efficacious conjugates and dosage regimens in mice bearing HT29-GCC#5 tumors. Mice were dosed with single or multiple doses. These studies determined that there was toxicity at too frequent dosing at higher levels of toxin conjugate (e.g., 150 μg/kg 5F9vcMMAF on a q3d×5 schedule). Another study determined that q14d×5 schedule was too infrequent in this model to allow some toxin conjugates to show significant efficacy vs. controls.

In the case of “5F9-vcMMAF: 5F9 anti-GCC antibody conjugated with mc-vc-MMAF”, the “LD 50 (nM)” value (HT 29 GCC #18 cells) is reported as >10,000 nM, the “Average % Tumor cells pH 3 positive” value (293-GCC#2 tumors; single iv dose 75 μg/kg, 1 hr) is reported as 4.235% and the “Average % Tumor cells pH 3 positive” value (293-GCC#2 tumors; single iv dose 75 μg/kg, 4 hr) is reported as 4.184%. For the same substance, the “Average % Tumor cells pH 3 positive” value (293-GCC#2 tumors; single iv dose 75 μg/kg, 8 hr) was 4.93%, the “Average % Tumor cells pH 3 positive” value (293-GCC#2 tumors; single iv dose 75 μg/kg, 24 hr) was 20.22% and the “Average % Tumor cells pH 3 positive” value (293-GCC#2 tumors; single iv dose 75 μg/kg, 48 hr) was 9.921%. The “Average % Tumor cells pH 3 positive” value (293-GCC#2 tumors; single iv dose 75 μg/kg, 96 hr) was 10.38%, the “Average % Tumor cells pH 3 positive” value (293-GCC#2 tumors; single iv dose 150 μg/kg, 1 hr) was 3.466% and the “Average % Tumor cells pH 3 positive” value (293-GCC#2 tumors; single iv dose 150 μg/kg, 4 hr) was 4.417%. For the same substance, the “Average % Tumor cells pH 3 positive” value (293-GCC#2 tumors; single iv dose 150 μg/kg, 8 hr) was 8.594%, the “Average % Tumor cells pH 3 positive” value (293-GCC#2 tumors; single iv dose 150 μg/kg, 24 hr) was 21.54% and the “Average % Tumor cells pH 3 positive” value (293-GCC#2 tumors; single iv dose 150 μg/kg, 48 hr) was 15.16%. For the same substance, the “Average % Tumor cells pH 3 positive” value (293-GCC#2 tumors; single iv dose 150 μg/kg, 96 hr) was 11.12%, the TGI (293 GCC#2 tumors; 37.5 μg/kg iv q7d×4) was 65.2 and the T/C (293 GCC#2 tumors; 37.5 μg/kg iv q7d×4) was 0.35. For the same substance, the TGD (293 GCC#2 tumors; 37.5 μg/kg iv q7d×4, tumor growth delay) was 7.1, the TGI (293 GCC#2 tumors; 75 μg/kg iv q7d×4) was 88.5 and the T/C (293 GCC#2 tumors; 75 μg/kg iv q7d×4) was 0.12. For the same substance, the TGI (293 GCC#2 tumors; 150 μg/kg iv q7d×4) was 97, the T/C (293 GCC#2 tumors; 150 μg/kg iv q7d×4) was 0.03 and the “efficacy (tumor growth, FIG. 1)” value (293-GCC#2 s.c. tumors) was “the most efficacious”. The “toxicity at too frequent dosing” value (HT29-GCC#5 s.c. tumors) was “toxicity”.
